Data taken from patent US8541543B2, “Peptides specific for hepatocellular carcinoma cells and applications thereof” (Academia Sinica, priority 2007, dated 2013).

Tests used:
advanced HCC = details: HCC (ref 36); cited from earlier work
[1] = tested on: Mahlavu-derived HCC xenografts; assay: Immunohistochemical tissue distribution of targeting phages in tumor-bearing mice; type: in vivo, SCID mice; details: FIG. 3C, j
Description: (§1) SCID mice (4-6 weeks old) were injected subcutaneously (s.c.) into the dorsal-lateral flank with 5×10^6 Mahlavu cells. Mice bearing Mahlavu-derived xenografts (500 mm^3) were injected intravenously (i.v.) with 2×10^9 pfu of PC94 or control phage. After perfusion, the organs (brain, heart, and lungs) and tumor tissue were removed, washed with cold PBS and weighed. The phage bound to the tumor tissue and organs were rescued by Escherichia coli ER2738 culture. The eluted phage particles were titrated on LB/IPTG/X-Gal plates. In peptide competitive inhibition experiments, 2×10^9 pfu of PC94 phage was co-injected with 100 μg of SP94 peptide or the control peptide. The tissue distribution of targeting phages in the tumor-bearing mice was examined by immunohistochemical staining. The tissue sections were incubated with mouse anti-M13 antibody, followed by incubation with biotinylated horse anti-mouse antibody (ABC kit; Vector Laboratories, Burlingame, Calif., USA) and washed with PBS, then immersed with ABC reagent. The sections were immersed in DAB solution plus 0.01% hydrogen peroxide, washed with PBS and mounted with 50% glycerol in PBS.

[2] = tested on: Mahlavu-derived HCC xenografts; assay: In vivo peptide competitive inhibition of PC94 tumor binding; parameters: species or system SCID mice; details: 100 μg peptide co-injected with PC94, FIG. 3B
Description: as §1

In the case of `COc1cccc2c1C(=O)c1c(O)c3c(c(O)c1C2=O)C[C@@](O)(C(=O)CO)C[C@@H]3O[C@H]1C[C@H](N)[C@H](O)[C@H](C)O1` [doxorubicin], the overall response rate (advanced HCC) is given as 18%.
For SFSIIHTPILPL [SP94], the “immuno-reactivity of tumor tissue when PC94 co-injected with peptide” value [1] was “no immuno-reactivity was found in the tumor tissue”.
For FPWFPLPSPYGN [control peptide], the “inhibition of PC94 binding to tumor tissue” value [2] was “no such inhibitory effect”.
